Data on seven compounds can be found in PMC7745062 (Acta Pharmaceutica Sinica. B, 2020).

“Also recorded” adds a separate entry of the source. Bounds are passed on as bounds.

Series [1] in a line: Metabolic stability in rat liver microsomes. Conditions: for half-life at 0.1 μmol/L: rat, pH 7.4. It counts as in vitro ADME.
The nature of series [2]: Metabolic stability in rat liver microsomes. It counts as in vitro ADME. The settings on record: RLM t1/2 (elimination half-life). Background: Microsomes from liver hold many membrane-bound enzymes, among them those of drug oxidation.
Series [3] deals with PDE10A (449–770) (Homo sapiens, UniProt Q9Y233). The series can be described thus: In vitro enzymatic activity assay.
Sequence of PDE10A (449–770) (Q9Y233 715-1036): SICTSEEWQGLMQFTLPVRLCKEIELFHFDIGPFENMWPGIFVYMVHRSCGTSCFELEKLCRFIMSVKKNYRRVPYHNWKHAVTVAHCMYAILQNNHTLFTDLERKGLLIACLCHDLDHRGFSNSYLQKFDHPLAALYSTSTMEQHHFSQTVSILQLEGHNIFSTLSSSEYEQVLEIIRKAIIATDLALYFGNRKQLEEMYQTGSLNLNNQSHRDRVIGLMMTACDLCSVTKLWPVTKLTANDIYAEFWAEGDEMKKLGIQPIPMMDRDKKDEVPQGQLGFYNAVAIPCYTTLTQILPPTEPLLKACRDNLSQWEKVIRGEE
Series [4] deals with monocrotaline (MCT)-induced PAH rat model. The series can be described thus: Monocrotaline. It counts as in vivo. The settings on record: for mean pulmonary artery pressure (mPAP) / right ventricle hypertrophy index (RVHI%) / wall thickness percentage (WT%): p.o. for 3 weeks, 14·3HCl 2.5 mg/kg, tadalafil 5.0 mg/kg, vs model group.
The nature of series [5]: In vivo pharmacokinetics of 14·3HCl in rats. Also noted: species or system Sprague–Dawley rats.
Series [6] deals with T1, human ether-à-go-go-related gene (hERG) potassium channel (Homo sapiens, UniProt Q12809).
T1 sequence (Q12809 whole entry): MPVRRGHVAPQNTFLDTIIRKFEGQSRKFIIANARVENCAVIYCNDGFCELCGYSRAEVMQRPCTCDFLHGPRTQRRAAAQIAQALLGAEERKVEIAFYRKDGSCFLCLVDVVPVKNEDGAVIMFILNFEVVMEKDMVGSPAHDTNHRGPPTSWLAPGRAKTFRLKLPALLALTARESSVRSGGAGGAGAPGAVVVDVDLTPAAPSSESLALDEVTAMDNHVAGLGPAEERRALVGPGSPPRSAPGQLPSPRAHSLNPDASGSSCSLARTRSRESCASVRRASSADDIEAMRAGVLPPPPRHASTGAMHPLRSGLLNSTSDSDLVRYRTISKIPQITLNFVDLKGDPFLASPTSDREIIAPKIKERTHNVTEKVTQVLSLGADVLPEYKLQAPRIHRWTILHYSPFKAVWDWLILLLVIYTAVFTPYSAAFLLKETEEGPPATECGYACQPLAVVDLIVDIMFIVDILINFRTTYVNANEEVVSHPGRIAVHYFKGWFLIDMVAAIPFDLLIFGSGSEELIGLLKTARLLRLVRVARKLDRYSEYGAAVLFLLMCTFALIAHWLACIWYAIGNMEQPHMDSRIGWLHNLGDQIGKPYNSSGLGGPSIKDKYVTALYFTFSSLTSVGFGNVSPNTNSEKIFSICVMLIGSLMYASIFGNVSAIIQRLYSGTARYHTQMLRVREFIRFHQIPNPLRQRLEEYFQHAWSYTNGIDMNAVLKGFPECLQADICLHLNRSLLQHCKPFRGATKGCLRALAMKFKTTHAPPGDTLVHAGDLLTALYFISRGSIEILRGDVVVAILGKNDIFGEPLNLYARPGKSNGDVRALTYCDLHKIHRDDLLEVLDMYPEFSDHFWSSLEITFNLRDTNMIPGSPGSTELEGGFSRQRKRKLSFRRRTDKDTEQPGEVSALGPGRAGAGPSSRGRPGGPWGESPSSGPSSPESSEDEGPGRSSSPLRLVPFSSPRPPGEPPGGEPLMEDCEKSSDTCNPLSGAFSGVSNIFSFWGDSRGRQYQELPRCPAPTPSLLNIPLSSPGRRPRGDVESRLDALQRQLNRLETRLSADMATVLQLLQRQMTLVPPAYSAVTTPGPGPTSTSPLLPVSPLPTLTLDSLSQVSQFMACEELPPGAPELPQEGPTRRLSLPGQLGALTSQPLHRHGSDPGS
In series [7] the target is PDE4D2 (86–413) (Homo sapiens, UniProt Q08499). Description: In vitro enzymatic activity assay, PDE4D2.
Sequence of PDE4D2 (86–413) (Q08499 388-715): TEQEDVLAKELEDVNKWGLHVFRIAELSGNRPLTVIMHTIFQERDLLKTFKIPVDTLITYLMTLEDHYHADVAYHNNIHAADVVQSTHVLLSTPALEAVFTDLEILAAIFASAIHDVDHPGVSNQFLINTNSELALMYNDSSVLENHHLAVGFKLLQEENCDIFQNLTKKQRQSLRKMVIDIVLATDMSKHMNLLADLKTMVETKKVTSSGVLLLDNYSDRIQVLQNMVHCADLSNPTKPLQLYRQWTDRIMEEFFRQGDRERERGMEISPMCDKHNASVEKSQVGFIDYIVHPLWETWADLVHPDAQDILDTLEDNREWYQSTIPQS
The nature of series [8]: Reactivity with cysteine in aqueous phase. It counts as physicochemical. The settings on record: Cys ratio 1:1, 1H NMR in D2O against time.
For series [9], the target named is PDE9A2 (181–506) (Homo sapiens, UniProt O76083). The series can be described thus: In vitro enzymatic activity assay, PDE9A2.
Sequence of PDE9A2 (181–506) (O76083 241-566): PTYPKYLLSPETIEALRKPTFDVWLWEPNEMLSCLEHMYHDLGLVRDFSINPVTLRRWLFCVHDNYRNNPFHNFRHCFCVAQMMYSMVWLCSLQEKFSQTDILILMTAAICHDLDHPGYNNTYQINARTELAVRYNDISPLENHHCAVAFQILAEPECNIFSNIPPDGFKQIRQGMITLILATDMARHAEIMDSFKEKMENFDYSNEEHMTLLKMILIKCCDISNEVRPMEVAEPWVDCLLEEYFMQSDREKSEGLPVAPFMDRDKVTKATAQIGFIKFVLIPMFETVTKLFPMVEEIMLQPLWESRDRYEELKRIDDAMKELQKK
The nature of series [10]: Solubility in deionized water. It counts as physicochemical. The settings on record: pH 7, water.
The target of series [11] is PDE8A1 (480–820) (Homo sapiens, UniProt O60658). The series can be described thus: In vitro enzymatic activity assay, PDE8A1.
Sequence of PDE8A1 (480–820) (O60658 480-820): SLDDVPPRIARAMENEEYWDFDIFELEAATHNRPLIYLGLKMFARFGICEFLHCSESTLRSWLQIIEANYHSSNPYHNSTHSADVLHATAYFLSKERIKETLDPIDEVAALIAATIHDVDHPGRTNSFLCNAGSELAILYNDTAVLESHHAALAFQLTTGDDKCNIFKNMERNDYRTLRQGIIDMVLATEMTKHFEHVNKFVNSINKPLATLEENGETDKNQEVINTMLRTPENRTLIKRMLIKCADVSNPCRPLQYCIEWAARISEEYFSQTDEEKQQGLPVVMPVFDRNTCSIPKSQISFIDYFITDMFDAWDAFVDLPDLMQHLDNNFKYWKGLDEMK
The target in series [12] is PDE7A1 (130–482) (Homo sapiens, UniProt Q13946). Description: In vitro enzymatic activity assay, PDE7A1.
Sequence of PDE7A1 (130–482) (Q13946 130-482): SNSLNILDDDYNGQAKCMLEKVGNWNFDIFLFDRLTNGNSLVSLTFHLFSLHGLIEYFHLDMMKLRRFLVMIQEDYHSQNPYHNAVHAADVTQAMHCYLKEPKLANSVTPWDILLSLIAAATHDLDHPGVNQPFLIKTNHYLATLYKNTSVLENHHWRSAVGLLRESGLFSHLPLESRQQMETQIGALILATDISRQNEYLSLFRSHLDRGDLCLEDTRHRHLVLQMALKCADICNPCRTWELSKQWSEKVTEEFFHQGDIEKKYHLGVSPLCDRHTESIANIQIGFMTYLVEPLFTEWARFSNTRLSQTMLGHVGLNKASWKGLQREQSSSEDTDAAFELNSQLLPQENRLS
For series [13], the target named is T1, human ether-à-go-go-related gene (hERG) potassium channel. Description: cell-based. Conditions: hERG IC50, peak tail current inhibition, 2−3 cells per concentration. Background: The hERG channel carries a current that helps repolarise heart muscle cells.
Series [14] relates to KM mice. Description: Acute toxicity after single oral dose in mice. It counts as in vivo.
Series [15] has as its target PDE3A (679–1087) (Homo sapiens, UniProt Q14432). The series can be described thus: In vitro enzymatic activity assay, PDE3A.
The target in series [16] is hERG potassium channel (versus PDE10A) (Homo sapiens, UniProt Q12809). The series can be described thus: in vitro.
Series [17] deals with PDE5A1 (535–860) (Homo sapiens, UniProt O76074). The series can be described thus: In vitro enzymatic activity assay, PDE5A1.
The target of series [18] is PDE1B (10–487) (Homo sapiens, UniProt Q01064). Description: In vitro enzymatic activity assay, PDE1B.
Sequence of PDE1B (10–487) (Q01064 10-487): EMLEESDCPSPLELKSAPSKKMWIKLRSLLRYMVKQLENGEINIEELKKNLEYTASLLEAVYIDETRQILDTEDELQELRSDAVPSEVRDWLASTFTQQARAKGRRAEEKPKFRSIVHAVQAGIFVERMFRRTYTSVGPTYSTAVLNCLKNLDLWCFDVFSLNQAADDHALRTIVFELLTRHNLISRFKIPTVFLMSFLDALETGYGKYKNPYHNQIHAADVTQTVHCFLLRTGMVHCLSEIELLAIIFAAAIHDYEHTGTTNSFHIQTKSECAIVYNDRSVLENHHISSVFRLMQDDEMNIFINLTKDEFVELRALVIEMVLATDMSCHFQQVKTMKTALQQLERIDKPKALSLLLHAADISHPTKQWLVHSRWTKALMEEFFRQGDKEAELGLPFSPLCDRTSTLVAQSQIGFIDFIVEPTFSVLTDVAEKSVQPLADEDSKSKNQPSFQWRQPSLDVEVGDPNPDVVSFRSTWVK
In series [19] the target is PDE2A (580–919) (Homo sapiens, UniProt O00408). The series can be described thus: In vitro enzymatic activity assay, PDE2A.
Sequence of PDE2A (580–919) (O00408 580-919): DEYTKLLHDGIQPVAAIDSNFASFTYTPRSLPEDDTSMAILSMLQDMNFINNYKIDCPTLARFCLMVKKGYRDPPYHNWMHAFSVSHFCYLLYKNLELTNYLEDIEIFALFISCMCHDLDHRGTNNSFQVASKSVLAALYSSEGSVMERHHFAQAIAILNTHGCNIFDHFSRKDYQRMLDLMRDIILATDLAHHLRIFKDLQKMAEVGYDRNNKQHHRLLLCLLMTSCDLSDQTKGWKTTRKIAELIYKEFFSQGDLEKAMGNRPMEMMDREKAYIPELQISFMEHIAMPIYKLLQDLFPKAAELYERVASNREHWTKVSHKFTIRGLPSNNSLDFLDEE
[20] abbreviates: male, Sprague-Dawley, rat, plasma, iv, 2.5 mg/kg.
The mark [21] stands for this setting: male, Sprague-Dawley, rat, plasma, po, 10 mg/kg.

Sequence of PDE3A (679–1087) (Q14432 679-1087): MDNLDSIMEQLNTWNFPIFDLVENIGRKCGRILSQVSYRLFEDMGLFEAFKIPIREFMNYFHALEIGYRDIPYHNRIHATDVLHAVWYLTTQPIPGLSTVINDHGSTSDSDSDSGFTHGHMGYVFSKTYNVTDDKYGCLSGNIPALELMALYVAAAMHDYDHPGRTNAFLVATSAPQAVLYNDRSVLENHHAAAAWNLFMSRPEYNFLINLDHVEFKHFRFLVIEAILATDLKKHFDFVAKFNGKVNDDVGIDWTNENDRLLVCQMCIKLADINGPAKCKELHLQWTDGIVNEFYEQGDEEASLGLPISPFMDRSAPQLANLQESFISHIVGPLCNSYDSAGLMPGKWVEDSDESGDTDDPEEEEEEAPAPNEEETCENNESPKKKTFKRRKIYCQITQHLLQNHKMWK

As for `Cc1ccc2c(c1)nc(/C=C/c1cccc3cccnc13)n2-c1cccc(OCCCN2CCOCC2)c1.Cl` [13·3HCl, (E)-4-(3-(3-(5-Methyl-2-(2-(quinolin-8-yl)vinyl)-1H-benzo[d]imidazole-1-yl)phenoxy)propyl)morpholine hydrochloride], in series [1], the “CLint (intrinsic body clearance)” value is 127.7 mL/(min·g·protein) and the half-life (usually how long it takes for the measured level to halve) at 0.1 μmol/L turned out to be 16 min.

In series [2], `Cc1ccc2c(c1)nc(/C=C/c1cccc3cccnc13)n2-c1ccccc1` [Compound 4, (E)-8-(2-(5-Methyl-1-phenyl-1H-benzo[d]imidazol-2-yl)vinyl)quinoline] displayed a half-life at 1.5 μmol/L of 17.4 min. The “enhancement of PDE10A inhibition relative to compound 2” value in series [3] (C=C bond instead of C–C single bond) was found to be 3 fold.

As for `COc1cccc(-n2c(/C=C/c3cccc4cccnc34)nc3cc(C)ccc32)c1` [Compound 10, (E)-8-(2-(1-(3-Methoxyphenyl)-5-methyl-1H-benzo[d]imidazole-2-yl)vinyl)quinoline], in series [1], the “CLint (intrinsic body clearance)” value was 999.4 mL/(min·g·protein) and the half-life at 0.1 μmol/L stood at 2.1 min.

Take `Cc1ccc2c(c1)nc(/C=C/c1cccc3cccnc13)n2-c1cccc(S(=O)(=O)N2CCN(C)CC2)c1` [Compound 11, (E)-8-(2-(5-Methyl-1-(3-((4-methylpiperazin-1-yl)sulfonyl)phenyl)-1H-benzo[d]imidazole-2-yl)vinyl) quinoline]: in [1], the “CLint (intrinsic body clearance)” value is reported as 1390 mL/(min·g·protein) and the half-life at 0.1 μmol/L is 1.5 min.

Turning to `Cc1ccc2c(c1)nc(/C=C/c1cccc3cccnc13)n2-c1cccc(CN2CCN(C)CC2)c1` [Compound 12, (E)-8-(2-(5-Methyl-1-(3-((4-methylpiperazin-1-yl)methyl)phenyl)-1H-benzo[d]imidazole-2-yl)vinyl) quinoline], in series [1], the “CLint (intrinsic body clearance)” value was 198.1 mL/(min·g·protein) and the half-life at 0.1 μmol/L was 11 min.

Turning to `Cc1ccc2c(c1)nc(/C=C/c1cccc3cccnc13)n2-c1cccc(OCCCN2CCN(C)CC2)c1.Cl` [Compound 14·3HCl, (E)-8-(2-(5-Methyl-1-(3-(3-(4-methylpiperazin-1-yl)propoxy)phenyl)-1H-benzo[d]imidazole-2-yl)vinyl)quinoline hydrochloride], in series [1], the “CLint (intrinsic body clearance)” value was 85.1 mL/(min·g·protein). Further, in series [1], the half-life at 0.1 μmol/L was 25 min. Moreover, the “improvement of PAH medical indicators” value in series [4] (14·3HCl 2.5 mg/kg p.o. compared with tadalafil 5.0 mg/kg p.o.) is reported as “comparable to tadalafil; also recorded: significantly ameliorating these PAH medical indicators; also recorded: significantly improved typical disease medical indicators”. For the same compound, the “mean pulmonary artery pressure (mPAP)” value in series [4] was “decreased”. The “right ventricle hypertrophy index (RVHI%)” value in series [4] is reported as “decreased”. Further, in [4], the “wall thickness percentage (WT%)” value was “decreased”. Besides, the figures for the AUC(0-inf) in series [5] (setting [20]) and in [5] (setting [21]) were 1820 ± 297 ng·h/mL and 3550 ± 1010 ng·h/mL, respectively. For the same compound, the AUC(0-t) (as a rule, the area under the concentration-time curve up to a stated or last time point) in series [5] (setting [20]) worked out at 1670 ± 184 ng·h/mL; in [5] (setting [21]), 3310 ± 812 ng·h/mL. In addition, the Cmax (usually the maximum level reached in the sampled fluid or tissue) in series [5] (setting [20]) was 230 ± 50 ng/mL; in series [5] (setting [21]) it was 272 ± 25 ng/mL. In addition, the MRT last (usually the average time that molecules of a dose stay in the body) in series [5] (setting [20]) came out at 378 ± 48 min; in series [5] (setting [21]), 504 ± 42 min. The Tmax (in general, the time at which the peak concentration occurs) worked out at 24 ± 24 min in [5] (setting [20]) and 360 ± 120 min in series [5] (setting [21]). In addition, the clearance (usually the rate of elimination divided by the concentration) in series [5] (setting [20]) was 23.3 mL/min/kg. Besides, the half-life was 402 ± 90 min in series [5] (setting [20]) and 312 ± 54 min in series [5] (setting [21]). In addition, the “bioavailability, fold higher than A” value in [5] (rats, oral) is recorded as ~20 fold. Also, the “safety margin between hERG IC50 and plasma peak concentration (Cmax)” value in [6] was 36 fold. In addition, the IC50 (commonly the concentration that gives 50% inhibition) is > 10 µM in series [7]; > 10 µM in series [9]; > 10 µM in series [11]; > 10 µM in [12]; 4.5 µM in series [13]; > 10 µM in [15]. Also, the IC50 in [17], in [18] and in [19] was > 10 µM each time. For the same compound, the Selectivity fold in series [7] (IC50(PDE4D2)/IC50(PDE10A2)), in [9] (IC50(PDE9A2)/IC50(PDE10A2)), in series [11] (IC50(PDE8A1)/IC50(PDE10A2)), in series [12] (IC50(PDE7A1)/IC50(PDE10A2)), in series [15] (IC50(PDE3A)/IC50(PDE10A2)) and in series [17] (IC50(PDE5A1)/IC50(PDE10A2)) was >3500 fold throughout. The Selectivity fold in [18] (IC50(PDE1B)/IC50(PDE10A2)) and in series [19] (IC50(PDE2A)/IC50(PDE10A2)) was >3500 fold in each case. The “reactivity of C=C bridge with cysteine” value in series [8] was “insensitive to react with cysteine”. Moreover, in series [10], the solubility (usually the concentration that dissolves in the medium under given conditions) is 4700 µg/mL. The acute toxicity result in series [14] (oral administration) was “no obvious acute toxicity”. Besides, in series [14] (single oral dose), the dose well tolerated was ≤ 1000 mg/kg. The selectivity ratio in [16] was 1600. Further, the “selectivity over other PDE subtypes” value in [3] (against other PDE families) is given as > 3500 fold.

`CN1CC(=O)N2[C@H](c3ccc4c(c3)OCO4)c3[nH]c4ccccc4c3C[C@@H]2C1=O` [tadalafil, reference compound]: in series [4], the “mean pulmonary artery pressure (mPAP)” value is recorded as “decreased”, the “right ventricle hypertrophy index (RVHI%)” value is “decreased” and the “wall thickness percentage (WT%)” value is given as “decreased”.
